In patent US20230390274A1 (EPIRIUM BIO INC., priority 2020, published 2023):
≈ marks a conversion by molar mass, not a printed value.

Tests used:
[1] = Compound stability in mouse liver microsomes; assay type: in vitro ADME; conditions: 37° C.
Method: A microsomal mixture comprising mouse liver microsomes and a potassium phosphate buffer was prepared at a concentration of 1.428 mg/mL in 2 mL tubes. 1.6 μL of test compound or imipramine as a positive control was added to the mixture, and 70 μL was transferred to a 96 well plate and pre-incubated at 37° C. for 5 minutes. After pre-incubation, […] 30 μL of NADPH (3.33 mM in potassium phosphate buffer) was added. The reaction mixtures were incubated at 37° C. for 15 and 45 minutes. Reactions without NADPH and buffer controls (minus NADPH) were conducted to rule out non-NADPH metabolism and chemical instability in the incubation buffer. The reactions were quenched with 100 μL ice cold acetonitrile containing an internal standard. The plates were centrifuged at 4000 RPM for 15 minutes and 100 μL aliquots were analyzed for parent compound disappearance by LC-MS/MS. The peak area ratios of analyte versus internal standard were used to calculate the percent remaining at the end of 45 minutes.

[2] = Pharmacokinetic study in rat, intravenous 1 mg/kg; assay type: in vivo
Method: (§1) Each mice PK study consisted of nine male C57BL/6 mice per group with sparse sampling design (n=3 mice per time point). The animals from intravenous groups were dosed with solution formulation of compounds via tail vein at 1 mg/kg dose. Ten compounds were screened in mice and one compound (the compound of Formula IV) was dosed in rat (n=3; serial sampling) following intravenous dose administration at 1 mg/kg dose. The solution formulation for compounds was prepared in 5% v/v DMA, 25% v/v PEG-400, and 70% v/v HPBCD (30% w/v); 15% v/v DMA, 5% Solutol HS-15, and 80% 1:1 PEG-300: Normal saline (2.25%); or 10% v/v DMA, 25% PEG-400, and 65% HPBCD (30% w/v solution). The dosing volume was 1 and 5 mL/kg for intravenous dose in rat and mice respectively. Blood samples (approximately 60 μL from mice and 120 μL from rats) were collected under light isoflurane anesthesia from a set of three mice at 0, 0.08, 0.25, 0.5, 1, 2, 4, 8, 12, and 24 hours post-dose. Plasma was harvested by centrifugation of blood and stored at −70±10° C. until analysis. Fit-for purpose LC-MS/MS method was developed and samples were processed by protein precipitation method. Non-Compartmental-Analysis tool of Phoenix WinNonlinR (Version 8.0) was used to assess the pharmacokinetic parameters. The areas under the concentration time curve (AUClast and AUCinf) were calculated by linear trapezoidal rule. The terminal elimination rate constant, Ke was determined by regression analysis of the linear terminal portion of the log plasma concentration-time curve. The terminal half-life (T1/2) was estimated at 0.693/ke. CLIV=Dose/AUCinf; Vss=MRT×CLIV.

[3] = Pharmacokinetic study in mice, intravenous 1 mg/kg; assay type: in vivo, C57BL/6 mice
Method: as §1

15-PGDH/HPGD = 15-PGDH/HPGD (Homo sapiens (Human), UniProt P15428); experiment: hPGDH inhibitor screening biochemical assay; conditions: Table 1, PGDH inhibitors with a 6-5 ring core; read-out: hPGDH: IC50
Summary of the method: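 10 nM recombinant 15-PGDH was preincubated with compound (10-point) for 10 min at 37° C. in 50 mM Tris-HCl pH 7.5, 0.01% Tween 20. Then 15 μM PGE2 and 0.25 mM NAD+ were added for 10 min at rt. NADH fluorescence (ex/em 340/485 nm) gave % inhibition versus 1% DMSO and a four-parameter IC50.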

Solubility at pH 7.4 = assay type: physicochemical; conditions: aqueous buffer, Table 1, 6-5 ring core

Chain of 15-PGDH/HPGD (P15428 whole entry): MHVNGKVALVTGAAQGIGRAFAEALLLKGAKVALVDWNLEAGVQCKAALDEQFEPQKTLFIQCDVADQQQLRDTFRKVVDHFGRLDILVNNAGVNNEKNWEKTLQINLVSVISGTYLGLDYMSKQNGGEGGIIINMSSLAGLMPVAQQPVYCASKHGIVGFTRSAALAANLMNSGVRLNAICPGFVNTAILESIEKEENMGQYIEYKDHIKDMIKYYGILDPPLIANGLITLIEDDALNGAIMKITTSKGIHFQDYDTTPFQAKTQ

| Structure (SMILES) | % Remaining at 45 Minutes (Mouse Liver Microsomes + NADPH) [1] | AUCinf [2] | AUClast [2] | C0/Cmax [2] | CL [2] | T1/2 [2] | Vss [2] | AUCinf [3] | AUClast [3] | C0/Cmax [3] | CL [3] | T1/2 [3] | Vss [3] | IC50 (15-PGDH/HPGD) | solubility (Solubility at pH 7.4) |
| --- | --- | --- | --- | --- | --- | --- | --- | --- | --- | --- | --- | --- | --- | --- | --- |
| O=C(c1cnc2c(ccn2-c2ccc(CO)cc2)c1)N1CCCCC1 [Formula IV] | 71% | 106.55 ng·h/mL | 105.58 ng·h/mL | 985.98 ng/mL | 158.60 mL/min/kg | 7.2 min | 0.86 L/kg | – | – | – | – | – | – | – | – |
| CN(C)C(=O)c1ccc(-n2ccc3cc(C(=O)N4CCCCC4)cnc32)cc1 [Formula V] | 86% | – | – | – | – | – | – | 263.35 ng·h/mL | 262.46 ng·h/mL | 1442.49 ng/mL | 63.29 mL/min/kg | 18 min | 0.76 L/kg | – | – |
| NC(=O)c1ncc(-n2ccc3cc(C(=O)N4CCCCC4)cnc32)cn1 [Formula XII] | 81% | – | – | – | – | – | – | 129.4 ng·h/mL | 117.19 ng·h/mL | 490.48 ng/mL | 128.8 mL/min/kg | 38.4 min | 5.16 L/kg | – | – |
| O=C(c1cnc2c(ccn2-c2ccc(O)nc2)c1)N1CCCCC1 [Formula XIV] | 74% | – | – | – | – | – | – | 96.33 ng·h/mL | 88.28 ng·h/mL | 165.86 ng/mL | 173.02 mL/min/kg | 16.2 min | 3.99 L/kg | – | – |
| COCCNC(=O)c1ccc(-n2ccc3cc(C(=O)N4CCCCC4)cnc32)cc1 [Formula X] | 89% | – | – | – | – | – | – | 147.4 ng·h/mL | 146.28 ng·h/mL | 1272.79 ng/mL | 113.07 mL/min/kg | 4.2 min | 0.58 L/kg | – | – |
| O=C(c1cnc2c(c1)ncn2-c1cccc(Cl)c1)N1CCCCC1 [drawing 103] | – | – | – | – | – | – | – | – | – | – | – | – | – | 1.5 nM | 21 µM (≈ 7.16 µg/mL) |

Other lines, results leading:

| % Remaining at 45 Minutes (Mouse Liver Microsomes + NADPH) [1] | AUCinf [2] | AUClast [2] | C0/Cmax [2] | CL [2] | T1/2 [2] | Vss [2] | AUCinf [3] | AUClast [3] | C0/Cmax [3] | CL [3] | T1/2 [3] | Vss [3] | IC50 (15-PGDH/HPGD) | solubility (Solubility at pH 7.4) | Structure (SMILES) |
| --- | --- | --- | --- | --- | --- | --- | --- | --- | --- | --- | --- | --- | --- | --- | --- |
| 70% | – | – | – | – | – | – | 156.23 ng·h/mL | 156.13 ng·h/mL | 749.07 ng/mL | 106.68 mL/min/kg | 12 min | 1.52 L/kg | – | – | NC(=O)c1ccc(-n2ccc3cc(C(=O)N4CCC(F)CC4)cnc32)cc1 [Formula IX] |
| 80% | – | – | – | – | – | – | 156.49 ng·h/mL | 156.43 ng·h/mL | 1012.93 ng/mL | 106.5 mL/min/kg | 26.4 min | 1.58 L/kg | – | – | CNC(=O)c1ccc(-n2ccc3cc(C(=O)N4CCCCC4)cnc32)cc1 [Formula VIII] |
| 88% | – | – | – | – | – | – | 214.11 ng·h/mL | 211.95 ng·h/mL | 633.31 ng/mL | 77.84 mL/min/kg | 20.4 min | 1.56 L/kg | – | – | CNC(=O)c1ccc(-n2ccc3cc(C(=O)N4CCC(F)CC4)cnc32)cc1 [Formula VII] |
| 89% | – | – | – | – | – | – | 259.43 ng·h/mL | 256.19 ng·h/mL | 571.21 ng/mL | 64.24 mL/min/kg | 42 min | 2.52 L/kg | – | – | Cc1c(C(=O)N2CCC(F)CC2)cnc2c1ccn2-c1ccc(C(N)=O)cc1 [Formula VI] |
| 84% | – | – | – | – | – | – | 131.66 ng·h/mL | 130.44 ng·h/mL | 663.41 ng/mL | 126.59 mL/min/kg | 9.6 min | 1.39 L/kg | – | – | COCCNC(=O)c1ccc(-n2ccc3cc(C(=O)N4CCC(F)CC4)cnc32)cc1 [Formula XI] |
